Calls of active or inactive are those of the source. No cut-off for these calls is given here.

2 compounds from ChEMBL document CHEMBL1147312, “1-Aryl Tetralin Lignans from Larrea tridentata” (J Nat Prod, 1989) can be followed below.

This assay relates to Rattus norvegicus. Nature of the assay: Anti-implantation activity in po dosed rat. It is filed as functional, organism-based.

As for `C[C@H]1[C@H](c2ccc(O)cc2)c2cc(O)c(O)cc2C[C@H]1C`, the result was Active.

`C[C@H]1[C@H](c2ccc(O)c(O)c2)c2cc(O)c(O)cc2C[C@H]1C`: the outcome was inactive.
